Test results published in patent US12673954B2 (BRISTOL-MYERS SQUIBB COMPANY, priority 2021, dated 2026).
Where two headings read alike, the source gives them in different places.

Key:
[1] = test system: NF-κB pathway, THP1-Dual™ cells; experiment: STING reporter assay in THP1-Dual cells, NF-κB pathway (SEAP, QUANTI-Blue); format: cell-based, human; settings: read-out: NFkB (EC50 μM)
In short: (§1)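 THP-1-derived dual-reporter cells treated with serially diluted compounds (final top concentration 100 μM) for 20 h at 37° C. NF-κB read as SEAP via QUANTI-Blue at OD620; IRF read as Lucia luminescence via QUANTI-Luc after 5 min. 100% activation set by 100 μM cGAMP, baseline by DMSO.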

[2] = test system: IRF pathway, THP1-Dual™ cells; experiment: STING reporter assay in THP1-Dual cells, IRF pathway (Lucia luciferase, QUANTI-Luc); format: cell-based, human; settings: read-out: IRF (EC50 μM)
In short: as §1

[3] = Homo sapiens, THP1-Dual, 20 h, THP1-Dual cells, 10% human plasma, 20 hours, SEAP, 100% activation = 100 μM cGAMP
[4] = Homo sapiens, THP1-Dual, 20 h, THP1-Dual cells, 10% human plasma, 20 hours, Lucia luciferase, 100% activation = 100 μM cGAMP
[5] = THP1-Dual cells, 10% human plasma, 20 hours, SEAP, 100% activation = 100 μM cGAMP
[6] = THP1-Dual cells, 10% human plasma, 20 hours, Lucia luciferase, 100% activation = 100 μM cGAMP

Structure (SMILES)	EC50 [1, 3] [µM]	EC50 [2, 4] [µM]	also measured
C[C@H](NC(=O)c1cnn2cccnc12)c1cc2cc(Cl)cc(C(=O)SCC[Si](C)(C)C)c2o1 [EXAMPLE 400, S-(2-(Trimethylsilyl)ethyl) (S)-5-chloro-2-(1-(pyrazolo[1,5-a]pyrimidine-3-carboxamido)ethyl)benzofuran-7-carbothioate]			EC50 ([1]; Homo sapiens, THP1-Dual, 20 h): 22 µM; EC50 ([2]; Homo sapiens, THP1-Dual, 20 h): 25 µM
CC(CC(F)(F)F)OC(=O)c1cc(Cl)cc2cc(CNC(=O)c3cnn4cccnc34)oc12 (single isomer, unassigned) [EXAMPLE 336, 4,4,4-Trifluorobutan-2-yl 5-chloro-2-((pyrazolo[1,5-a]pyrimidine-3-carboxamido)methyl)benzofuran-7-carboxylate]			EC50 [1, 5]: 2.5 µM; EC50 [2, 6]: 3.2 µM
COC(OC(=O)c1cc(F)cc2cc(CNC(=O)c3cnc4cccnn34)oc12)C(F)(F)F (single isomer, unassigned) [EXAMPLE 314, 2,2,2-Trifluoro-1-methoxyethyl 5-fluoro-2-((imidazo[1,2-b]pyridazine-3-carboxamido)methyl)benzofuran-7-carboxylate]			EC50 [1, 5]: 1.9 µM; EC50 [2, 6]: 1.9 µM
COC(=O)c1cc(Br)cc2cc(CN3Cc4ncncc4C3=O)oc12 [Example 83, Methyl 5-bromo-2-((5-oxo-5,7-dihydro-6H-pyrrolo[3,4-d]pyrimidin-6-yl)methyl)benzofuran-7-carboxylate]	48	37	
CC(C)OC(=O)c1cc(Cl)cc2cc(Cn3cnc4ccncc4c3=O)oc12 [EXAMPLE 262, Isopropyl 5-chloro-2-((4-oxopyrido[4,3-d]pyrimidin-3(4H)-yl)methyl)benzofuran-7-carboxylate]	18	14	
COC(=O)c1cccc2cc(CNC(=O)c3cnccn3)oc12 [EXAMPLE 8, Methyl 2-((pyrazine-2-carboxamido)methyl)benzofuran-7-carboxylate]	18	21	
CCC(C)OC(=O)c1cccc2cc(CN3CCc4ccncc4C3=O)oc12 (racemic) [EXAMPLE 208, Sec-butyl 2-((1-oxo-3,4-dihydro-2,7-naphthyridin-2(1H)-yl)methyl)benzofuran-7-carboxylate]	31	33	
COC(=O)c1cc(Cl)cc2cc(CNC(=O)c3cncc(Cl)n3)oc12 [Example 61, Methyl 5-chloro-2-((6-chloropyrazine-2-carboxamido)methyl) benzofuran-7-carboxylate]			EC50 [1, 5]: 21 µM; EC50 [2, 6]: 21 µM
COC(=O)c1cc(Cl)cc2cc(CNC(=O)c3[nH]nc4cccnc34)oc12 [Example 49, Methyl 2-((2H-pyrazolo[4,3-b]pyridine-3-carboxamido)methyl)-5-chlorobenzofuran-7-carboxylate]	93	71	
Cc1ccnc2c(C(=O)NCc3cc4cccc(C(=O)OCC(F)(F)F)c4o3)cnn12 [EXAMPLE 221, 2,2,2-Trifluoroethyl 2-((7-methylpyrazolo[1,5-a]pyrimidine-3-carboxamido)methyl)benzofuran-7-carboxylate]	83	42	
COC(=O)c1cc(Cl)cc2cc(CNC(=O)c3cncc(C)n3)oc12 [Example 59, Methyl 5-chloro-2-((6-methylpyrazine-2-carboxamido)methyl) benzofuran-7-carboxylate]			EC50 [1, 5]: 2.6 µM; EC50 [2, 6]: 2.4 µM
Cc1ccc2cc(CNC(=O)c3cnn4cccnc34)oc2c1C(=O)OCC(F)(F)F [EXAMPLE 287, 2,2,2-Trifluoroethyl 6-methyl-2-((pyrazolo[1,5-a]pyrimidine-3-carboxamido)methyl)benzofuran-7-carboxylate]	18	12	
CCCn1cncc(C(=O)NCc2cc3cc(Cl)cc(C(=O)OC)c3o2)c1=O [Example 67, Methyl 5-chloro-2-((1-propyl-6-oxo-1,6-dihydropyrimidine-5-carboxamido)methyl)benzofuran-7-carboxylate]	32	20	
COC(OC(=O)c1cc(C)cc2cc(CNC(=O)c3cnn4cccnc34)oc12)C(F)(F)F (single isomer, unassigned) [EXAMPLE 344, 2,2,2-Trifluoro-1-methoxyethyl 5-methyl-2-((pyrazolo[1,5-a]pyrimidine-3-carboxamido)methyl)benzofuran-7-carboxylate]			EC50 [1, 5]: 0.76 µM; EC50 [2, 6]: 0.63 µM

More lines, in order of falling EC50 [1, 3], values ahead:

EC50 [1, 3] [µM]	EC50 [2, 4] [µM]	Structure (SMILES)	also measured
16	13	O=C(OCC(F)(F)F)c1cc(Cl)cc2cc(CN3CCc4ccncc4C3=O)oc12 [EXAMPLE 370, 2,2,2-Trifluoroethyl 5-chloro-2-((1-oxo-3,4-dihydro-2,7-naphthyridin-2(1H)-yl)methyl)benzofuran-7-carboxylate]	
14	13	COC(=O)c1cccc2cc(CN3Cc4ccnc(F)c4C3=O)oc12 [EXAMPLE 4, Methyl 2-((4-fluoro-3-oxo-1,3-dihydro-2H-pyrrolo[3,4-c]pyridin-2-yl)methyl)benzofuran-7-carboxylate]	
14	12	O=C(OCC(F)(F)F)c1cccc2cc(CN3CCc4ccncc4C3=O)oc12 [EXAMPLE 215, 2,2,2-Trifluoroethyl 2-((1-oxo-3,4-dihydro-2,7-naphthyridin-2(1H)-yl)methyl)benzofuran-7-carboxylate]	
12	11	COC(=O)c1cc(F)cc2cc(Cn3ccc4ncncc4c3=O)oc12 [EXAMPLE 37, Methyl 5-fluoro-2-((5-oxopyrido[4,3-d]pyrimidin-6(5H)-yl)methyl)benzofuran-7-carboxylate]	
7.1	9.4	CONC(=O)c1cc(Cl)cc2cc(CNC(=O)c3cnn4cccnc34)oc12 [EXAMPLE 406, N-((5-Chloro-7-(methoxycarbamoyl)benzofuran-2-yl)methyl)pyrazolo[1,5-a]pyrimidine-3-carboxamide]	
6.5	6.1	O=C(OCC(F)(F)F)c1cc(F)cc2cc(CN3CCc4ccncc4C3=O)oc12 [EXAMPLE 228, 2,2,2-Trifluoroethyl 5-fluoro-2-((1-oxo-3,4-dihydro-2,7-naphthyridin-2(1H)-yl)methyl)benzofuran-7-carboxylate]	
3.6	3.1	COC(=O)c1ccc(C)c2cc(CN3CCc4ccncc4C3=O)oc12 [EXAMPLE 28, Methyl 4-methyl-2-((1-oxo-3,4-dihydro-2,7-naphthyridin-2(1H)-yl)methyl)benzofuran-7-carboxylate]	
2.9	3	COC(=O)c1ccc(C)c2cc(Cn3cnc4ccncc4c3=O)oc12 [EXAMPLE 29, Methyl 4-methyl-2-((4-oxopyrido[4,3-d]pyrimidin-3(4H)-yl)methyl)benzofuran-7-carboxylate]	
2.7	2.1	Cc1cc(C(=O)O[C@@H](C)C(F)(F)F)c2oc(CNC(=O)c3cnn4cccnc34)c(Cl)c2c1 [EXAMPLE 301, (S)-1,1,1-Trifluoropropan-2-yl 3-chloro-5-methyl-2-((pyrazolo[1,5-a]pyrimidine-3-carboxamido)methyl)benzofuran-7-carboxylate]	
2.1	1.7	COC(=O)c1cc(Cl)cc2cc(CNC(=O)c3cncc4[nH]cnc34)oc12 [Example 68, Methyl 2-((3H-imidazo[4,5-c]pyridine-7-carboxamido)methyl)-5-chlorobenzofuran-7-carboxylate]	
1.2	1.2	O=C(OC(CF)CF)c1cc(F)cc2cc(CNC(=O)c3cnn4cccnc34)oc12 [EXAMPLE 237, 1,3-Difluoropropan-2-yl 5-fluoro-2-((pyrazolo[1,5-a]pyrimidine-3-carboxamido)methyl)benzofuran-7-carboxylate]	
1.1	1.7	C[C@H](NC(=O)c1cnn2cccnc12)c1oc2c(C(=O)OCC(F)(F)F)cc(F)cc2c1Cl [EXAMPLE 292, 2,2,2-Trifluoroethyl (S)-3-chloro-5-fluoro-2-(1-(pyrazolo[1,5-a]pyrimidine-3-carboxamido)ethyl)benzofuran-7-carboxylate]	
0.81	0.8	COC(=O)c1cc(C)cc2cc(CNC(=O)c3cncc4cccnc34)oc12 [Example 92, methyl 2-((1,6-naphthyridine-8-carboxamido)methyl)-5-methylbenzofuran-7-carboxylate]	
0.71	0.62	C[C@H](OC(=O)c1cc(F)cc2c(Cl)c(CNC(=O)c3cnn4cccnc34)oc12)C(F)(F)F [EXAMPLE 289, (S)-1,1,1-Trifluoropropan-2-yl 3-chloro-5-fluoro-2-((pyrazolo[1,5-a]pyrimidine-3-carboxamido)methyl)benzofuran-7-carboxylate]	
0.52	0.4	O=C(OCC(F)(F)F)c1cc(C(F)(F)F)cc2cc(CNC(=O)c3cnn4cccnc34)oc12 [EXAMPLE 283, 2,2,2-Trifluoroethyl 2-((pyrazolo[1,5-a]pyrimidine-3-carboxamido)methyl)-5-(trifluoromethyl)benzofuran-7-carboxylate]	
0.27	0.22	COC(=O)c1cc(F)cc2c(Cl)c(CNC(=O)c3cnn4cccnc34)oc12 [EXAMPLE 110, Methyl 3-chloro-5-fluoro-2-((pyrazolo[1,5-a]pyrimidine-3-carboxamido)methyl)benzofuran-7-carboxylate]	
